Experimental data taken from ChEMBL document CHEMBL1201862, “PubChem BioAssay data set” (2004).
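Test compounds were applied to cells in 96-well plates for 48 hours at 5 doses. GI50: concentration for 50% inhibition of growth.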 The source made the active and inactive calls. No stated cut-off is given here; in the data, active = GI50 up to about 1.1 µM and inactive = higher.

Tests used:
Assay in all cases: DTP human tumour cell line panel, 48 h
COLO 205 = test system: COLO 205
HCT-116 = test system: HCT-116
MDA-N = test system: MDA-N
HOP-92 = test system: HOP-92
SK-OV-3 = test system: SK-OV-3
NCI-H23 = test system: NCI-H23
BT-549 = test system: BT-549
OVCAR-4 = test system: OVCAR-4
SF-295 = test system: SF-295
TK-10 = test system: TK-10
HL-60 = test system: HL-60
MCF7 = test system: MCF7
EKVX = test system: EKVX
SK-MEL-2 = test system: SK-MEL-2
CAKI-1 = test system: CAKI-1
786-0 = test system: 786-0
RXF 393 = test system: RXF 393
MDA-MB-231 = test system: MDA-MB-231
SW-620 = test system: SW-620
RPMI-8226 = test system: RPMI-8226

| SMILES | GI50 (COLO 205) | GI50 (HCT-116) | GI50 (MDA-N) | GI50 (HOP-92) | GI50 (SK-OV-3) | GI50 (NCI-H23) | GI50 (BT-549) | GI50 (OVCAR-4) | GI50 (SF-295) | GI50 (TK-10) | GI50 (HL-60) | GI50 (MCF7) | GI50 (EKVX) | GI50 (SK-MEL-2) | GI50 (CAKI-1) | GI50 (786-0) | GI50 (RXF 393) | GI50 (MDA-MB-231) | GI50 (SW-620) | GI50 (RPMI-8226) |
| --- | --- | --- | --- | --- | --- | --- | --- | --- | --- | --- | --- | --- | --- | --- | --- | --- | --- | --- | --- | --- |
| Cc1cc(-c2ccccc2)nc2oc(=O)n(C)c12 | > 100 µM (inactive) | 75 µM (inactive) | > 100 µM (inactive) | 86.5 µM (inactive) | > 100 µM (inactive) | 83.9 µM (inactive) | > 100 µM (inactive) | > 100 µM (inactive) | 39.5 µM (inactive) | 34.4 µM (inactive) | > 100 µM (inactive) | > 100 µM (inactive) | 42.8 µM (inactive) | 79.3 µM (inactive) | 49.1 µM (inactive) | 37.8 µM (inactive) | 28.1 µM (inactive) | 64.9 µM (inactive) | > 100 µM (inactive) |  |
| C/C(=N\O)c1cccc(Nc2nc3ccccc3c3occc23)c1 | 12.9 µM (inactive) | 12.3 µM (inactive) | 13.1 µM (inactive) | 5.3 µM (inactive) | 15 µM (inactive) |  | 13.1 µM (inactive) | 12.4 µM (inactive) | 8.83 µM (inactive) | 13 µM (inactive) | 20.9 µM (inactive) | 15 µM (inactive) | 12.7 µM (inactive) |  | 10.7 µM (inactive) | 12.7 µM (inactive) | 5.19 µM (inactive) | 11.9 µM (inactive) |  | 7.06 µM (inactive) |
| Cc1csc2c(=O)n(COCc3ccccc3)c(=O)[nH]c12 | > 100 µM (inactive) | > 100 µM (inactive) | > 100 µM (inactive) | 40.8 µM (inactive) |  | > 100 µM (inactive) | > 100 µM (inactive) | > 100 µM (inactive) | > 100 µM (inactive) | > 100 µM (inactive) | > 100 µM (inactive) | 95.9 µM (inactive) | 66.2 µM (inactive) |  | > 100 µM (inactive) | > 100 µM (inactive) | > 100 µM (inactive) | > 100 µM (inactive) | > 100 µM (inactive) | > 100 µM (inactive) |
| CC(C)CCNC(=O)c1ccc(CNC(=O)/C=C/c2ccc3c(c2)-c2ccccc2C3)cc1 | 88.1 µM (inactive) | 59.8 µM (inactive) | 62.8 µM (inactive) | 41.2 µM (inactive) | 57.1 µM (inactive) | 94 µM (inactive) | 87.3 µM (inactive) | 22.9 µM (inactive) | 30.7 µM (inactive) | 40 µM (inactive) |  | > 100 µM (inactive) | > 100 µM (inactive) | > 100 µM (inactive) | 26.5 µM (inactive) | 33.9 µM (inactive) | 39.1 µM (inactive) | 34.5 µM (inactive) | 44.8 µM (inactive) | 44 µM (inactive) |
| Cc1ccc(NC(=O)C23CC4CC(CC(C4)C2)C3)c(C(=O)NNC(=O)c2ccc(Cl)cc2)c1 | 27.2 µM (inactive) | 25.8 µM (inactive) | 20.2 µM (inactive) | 9.48 µM (inactive) | 15.8 µM (inactive) | 12.9 µM (inactive) | 35.9 µM (inactive) | 16.7 µM (inactive) | 22.9 µM (inactive) | 17.7 µM (inactive) | 28.3 µM (inactive) | 17.4 µM (inactive) | 18.5 µM (inactive) |  | 23.3 µM (inactive) | 20.2 µM (inactive) | 15 µM (inactive) | 15.5 µM (inactive) | 26.2 µM (inactive) | 19 µM (inactive) |
| COc1cccc(-n2c(N)c(-c3nc4cc(C(F)(F)F)ccc4s3)c3ccc([N+](=O)[O-])cc3c2=O)c1 | > 100 µM (inactive) | > 100 µM (inactive) | > 100 µM (inactive) | > 100 µM (inactive) | > 100 µM (inactive) | > 100 µM (inactive) | > 100 µM (inactive) | > 100 µM (inactive) | > 100 µM (inactive) | > 100 µM (inactive) |  | > 100 µM (inactive) | > 100 µM (inactive) | > 100 µM (inactive) | > 100 µM (inactive) | > 100 µM (inactive) |  | > 100 µM (inactive) |  | > 100 µM (inactive) |
| c1cncc(CC2(c3cc4ccccc4[nH]3)OCCO2)c1 | > 100 µM (inactive) | > 100 µM (inactive) | > 100 µM (inactive) | > 100 µM (inactive) | > 100 µM (inactive) | > 100 µM (inactive) | 66.1 µM (inactive) | > 100 µM (inactive) | > 100 µM (inactive) | > 100 µM (inactive) | 37.2 µM (inactive) | > 100 µM (inactive) |  | > 100 µM (inactive) | > 100 µM (inactive) | > 100 µM (inactive) |  | > 100 µM (inactive) | > 100 µM (inactive) |  |
| CO/N=C/c1c(-c2ccc(Cl)cc2)c(/C=N/OC)n2c1sc1ccccc12 | > 100 µM (inactive) | > 100 µM (inactive) | > 100 µM (inactive) | 8.49 µM (inactive) | > 100 µM (inactive) | > 100 µM (inactive) | > 100 µM (inactive) | 83 µM (inactive) | > 100 µM (inactive) | > 100 µM (inactive) | 32 µM (inactive) | > 100 µM (inactive) | > 100 µM (inactive) | > 100 µM (inactive) | > 100 µM (inactive) | > 100 µM (inactive) | > 100 µM (inactive) | > 100 µM (inactive) | > 100 µM (inactive) |  |
| CC(C)(C)[Si](C)(C)OCC1OC(n2ccc(N)nc2=O)C(O[Si](C)(C)C(C)(C)C)C1O[Si](C)(C)C(C)(C)C (stereo not drawn) | 3.09 µM (inactive) | 3.14 µM (inactive) | 3.89 µM (inactive) | 2.17 µM (inactive) | 2.75 µM (inactive) |  | 1.62 µM (inactive) | 0.0356 µM (active) | 1.74 µM (inactive) |  |  | 2.14 µM (inactive) | 3.22 µM (inactive) | 2.07 µM (inactive) |  | 1.59 µM (inactive) |  | 10.8 µM (inactive) | 1.58 µM (inactive) |  |
| CC(=O)N1c2cc(/N=N/N(C)C)ccc2NC(=O)CC1C (stereo not drawn) | > 100 µM (inactive) | > 100 µM (inactive) | > 100 µM (inactive) |  | > 100 µM (inactive) | > 100 µM (inactive) | > 100 µM (inactive) | > 100 µM (inactive) | > 100 µM (inactive) | > 100 µM (inactive) | > 100 µM (inactive) | > 100 µM (inactive) | > 100 µM (inactive) | > 100 µM (inactive) | > 100 µM (inactive) | > 100 µM (inactive) | > 100 µM (inactive) | > 100 µM (inactive) | > 100 µM (inactive) | > 100 µM (inactive) |
| CC(=O)NN(c1ccccc1)C1CCN(c2ccccc2)N1C(C)=O (stereo not drawn) | 3.13 µM (inactive) | 9.84 µM (inactive) | 9.16 µM (inactive) |  | > 10 µM (inactive) | > 10 µM (inactive) | > 10 µM (inactive) | > 10 µM (inactive) | 3.5 µM (inactive) | > 10 µM (inactive) | 3.69 µM (inactive) | 8.91 µM (inactive) | > 10 µM (inactive) | > 10 µM (inactive) | 4.12 µM (inactive) | > 10 µM (inactive) | > 10 µM (inactive) | > 10 µM (inactive) | 0.889 µM (active) | 8.71 µM (inactive) |
| CC(=O)OCC1C(C(C)OC(C)=O)CCC2C1CCC1(C)C(OC(C)=O)CCC21 (stereo not drawn) |  | 15.8 µM (inactive) | 18.6 µM (inactive) | 17.9 µM (inactive) |  | 24.1 µM (inactive) | 11.6 µM (inactive) | 19.8 µM (inactive) | 21 µM (inactive) | > 100 µM (inactive) | 17.1 µM (inactive) | 19.1 µM (inactive) | 15.6 µM (inactive) |  | 37.4 µM (inactive) | 22.6 µM (inactive) |  | 15.6 µM (inactive) | 17.9 µM (inactive) | 16.5 µM (inactive) |
| CC(C)(C)n1c(=O)[nH]c(=O)n1C(C)(C)C | > 100 µM (inactive) | > 100 µM (inactive) | > 100 µM (inactive) | > 100 µM (inactive) | > 100 µM (inactive) | > 100 µM (inactive) | > 100 µM (inactive) | > 100 µM (inactive) | > 100 µM (inactive) | > 100 µM (inactive) | > 100 µM (inactive) | > 100 µM (inactive) | > 100 µM (inactive) | > 100 µM (inactive) | > 100 µM (inactive) | > 100 µM (inactive) | > 100 µM (inactive) | > 100 µM (inactive) | > 100 µM (inactive) |  |
| CC(=O)O[C@H]1C[C@H](O[C@H]2[C@@H](O)C[C@H](O[C@H]3[C@@H](O)C[C@H](O[C@H]4CC[C@@]5(C)[C@H](CC[C@@H]6[C@@H]5C[C@@H](O)[C@]5(C)[C@@H](C7=CC(=O)OC7)CC[C@]65O)C4)O[C@@H]3C)O[C@@H]2C)O[C@H](C)[C@H]1O[C@@H]1O[C@H](CO)[C@@H](O)[C@H](O)[C@H]1O [LANATOSIDE C] | 0.136 µM (active) | 0.0324 µM (active) | 0.156 µM (active) | 0.122 µM (active) | 0.0597 µM (active) | 0.0193 µM (active) | 0.044 µM (active) | 0.0465 µM (active) | 0.0426 µM (active) | 0.0454 µM (active) | 0.0332 µM (active) | 0.051 µM (active) | 0.0284 µM (active) | 0.165 µM (active) | 0.0336 µM (active) | 0.0322 µM (active) |  | 0.372 µM (active) | 0.0536 µM (active) | 0.0368 µM (active) |
| S=C1SC(c2ccc(Cl)cc2)(c2ccc(Cl)cc2)c2ccccc21 | 80.5 µM (inactive) | 24.7 µM (inactive) | 62.2 µM (inactive) | 44.4 µM (inactive) | > 100 µM (inactive) | 71 µM (inactive) | 79.1 µM (inactive) | > 100 µM (inactive) | 53.7 µM (inactive) | > 100 µM (inactive) |  | 38.5 µM (inactive) | 91.4 µM (inactive) |  | 53.8 µM (inactive) | > 100 µM (inactive) | 56.9 µM (inactive) | > 100 µM (inactive) | 68.7 µM (inactive) |  |
